Patent US12570603B2, “FABP4/5 inhibitors, methods of use and methods of making” (Novius Therapeutics, LLC, priority 2021, dated 2026)

What was measured:
HepG2 cells = test: Lipid uptake assay, oleic acid, Nile Red (steatosis model); format: cell-based, human; settings: OA 1 mM 24 h, compound 4 h before
Description: 2) Hepg2 cells: 5000 cells were plated in 96-well plate. The next day cells were treated with tested compounds for 4 hours and then treated with 1 mM oleic acid for additional 24 hours. Cells were then stained with Nile Red and Dapi and lipid content was quantified using Cytation5 (Agilent).
2) Hepg2 cells: 5000 cells were plated in 96-well plate. The next day cells were treated with tested compounds for 4 hours and then treated with 1 mM oleic acid for additional 24 hours. Cells were then stained with Nile Red and Dapi and lipid content was quantified.

MDA-MB-157 = test: Proliferation assay (Incucyte confluency, 4 days); format: cell-based, human; settings: MDA-MB-157, 4 days
Description: (§1) COS-7, MDA-MB-231, HepG2, LX-2, 3T3-L1, NPG, and MCF7 were cultured in Dulbecco's modified Eagle's medium (DMEM) supplemented with 10% fetal bovine serum (Invitrogen Life Sciences, Carlsbad, CA). MDA-MB-157 and MB-549 cells were cultured in L-Glutamine containing RPMI medium supplemented with 10% fetal calf serum (Invitrogen Life Sciences, Carlsbad, CA). For proliferation assays, 2000 cells were plated in each well of 96-well plate. The next day cells were treated with compounds and incubated in Incucyte for 4 days. Images taken every 4 hours for the duration of the time were analyzed to calculate percentage of confluency in response to the treatments.
(§2) The TNBC line MB-231 was used to calculate the efficacy of compounds B104, B106, B110, B116, and B118 in inhibiting proliferation of the cancer cells. Cells were treated with serial dilution of the compounds or the known FABP5/7 inhibitor SBF-I26 and proliferation was measured in Incucyte by calculating percentage of confluency every 4 hours over 4 days. […] The EC50 for each compound was calculated by fitting the percentage of inhibition vs. the logarithmic transformation of the used concentrations (FIG. 37B and FIG. 37D). Additionally, the effect of B116 and B118 was also tested on proliferation of the human TNBC lines MDA-MB-157 (FIG. 37E) and MB-549 (FIG. 37F).

MB-549 = test: Proliferation assay (Incucyte confluency, 4 days); format: cell-based, human; settings: MB-549, 4 days
Description: as §1, §2

FABP4 = biological target: T1, FABP4 (Homo sapiens, UniProt P15090); test: FABP binding assay by fluorescence titration (ANS competition); settings: fluorescence competition with ANS; read-out: FABP4 binding
T1 construct: made in house
Description: (§3) This example illustrates a binding assay study used to determine the binding affinity of the various inhibitor compounds disclosed herein with the various FABPs: FABP3, FABP4, FABP5 and FABP7.
(§4) Binding assays for FABP3, FABP4, FABP5 and FABP7 were carried out by fluorescence titrations. FABPs were bacterially expressed and purified and the equilibrium dissociation constants (Kd) that characterize their interactions with different compounds were measured by fluorescence competition assays. The method entails two steps as described in e.g., Lin, Q. et al., “Ligand selectivity of the peroxisome proliferator-activated receptor alpha,” Biochemistry 38, 185-190, doi:10.1021/bi9816094 bi9816094 [pii](1999). In the first step, Kd for the association of the protein with the fluorescent fatty acid probe ANS was measured. Protein ([…]) was titrated with ANS from a concentrated solution in DMSO. Ligand binding was monitored by following the increase in the fluorescence of the ligand upon binding to the protein, and Kd for the association of ANS with the each FABP was computed from titration curves as described in e.g., Norris, A. W. & Li, E., “Fluorometric titration of the CRABPs,” Methods Mol Biol 89, 123-139 (1998)). Kds for binding of non-fluorescent ligands were then measured by monitoring their ability to displace ANS in the binding pocket of the protein. Each FABP was pre-complexed with ANS at 1:1 molar ratio and titrated with the different compounds whose binding was reflected by a decrease in probe fluorescence. Kds were extracted from the EC50 of the competition curve and the measured Kd for ANS.
(§5) Binding assays for FABP3, FABP4, FABP5 and FABP7 were carried out by fluorescence titrations as described in Example 16.

FABP5 = biological target: T2, FABP5 (Homo sapiens, UniProt Q01469); test: as above; settings: fluorescence competition with ANS; read-out: FABP5 binding
T2 construct: made in house
Description: as §3, §4, §5

[1] = system: NPG human neuroblastoma cells; test: Neuroblastoma proliferation assay with or without all-trans retinoic acid; format: cell-based; settings: for proliferation of neuroblastoma cells in combination with atRA: combined with atRA; for proliferation of neuroblastoma cells: compound alone, 4 days
Description: as §1
Activation of PPARβ by atRA shifts the signaling of this vitamin from its cognate receptor RAR that is known to have anti-carcinogenic activities in multiple cancers to the pro-carcinogenic PPARβ. […] Accordingly, NB, human NPG cells were used to test the effect of FABP5 inhibitors on cells' proliferation in combination with atRA. Cells were treated with either B104 or B108 in the presence or absence of atRA.

PPARδ = test: Transactivation assay, PPRE luciferase reporter in COS-7 cells; format: cell-based
Description: (§6) COS-7 were cultured in 6-well plates and co-transfected with either a luciferase reporter driven by 3 copies of a PPRE and expression vector for either PPARδ, PPARα or PPARγ together with a vector harboring cDNA for β-galactosidase, serving as a transfection control. To test whether FABP4 or FABP5 mediate activation of their cognate receptors PPARγ and PPARδ, respectively, cells were also co-transfected with a plasmid harboring sequence of either FABP4 or FABP5. 18 h post-transfection, cells were placed in a serum-free medium and treated with agonist/compound. 18 h. later, cells were lysed, luciferase activity was assayed (Promega, WI, USA) and corrected for transfection efficiency by the activity of β-galactosidase.
(§7) COS-7 were cultured in 6-well plates and co-transfected with either a luciferase reporter driven by 3 copies of a PPRE and expression vector for either PPARδ, PPARα or PPARγ together with a vector harboring cDNA for β-galactosidase, serving as a transfection control. 18 h. post-transfection, cells were placed in a serum-free medium and treated with agonist/compound. 18 h. later, cells were lysed, luciferase activity was assayed (Promega, WI, USA) and corrected for transfection efficiency by the activity of β-galactosidase.

MB-231 cells = test: Proliferation assay (Incucyte confluency, 4 days); format: cell-based; settings: MB-231, serial dilution
Description: as §1, §2

[2] = system: PPARδ targets PDPK1 and CD47 in TNBC cells MB-231; test: Real-time PCR of PPARδ targets; format: cell-based; settings: MB-231, 1 μM, 6 hours
Description: (§8) Cells were treated with a compound for 6 h. then lysed and RNA was extracted using Trizol, according to the manufacturer's instructions. cDNA was generated using GeneAmp RNA PCR (Applied Biosystems). qPCR was carried out using TaqMan chemistry and Assays-on-Demand probes (Applied Biosystems). 18s (4352930) rRNA was used for normalization. Relative expression was calculated as 2^−ΔΔCT.

TNBC lines and MCF7 = test: Proliferation assay in multiple TNBC lines and MCF7, MB-231 shF5 as control; format: cell-based
Description: (§9) 2000 cells were plated in each well of 96-well plate. The next day cells were treated with compounds and incubated in Incucyte for 4 days. Images taken every 4 hours for the duration of the time were analyzed to calculate percentage of confluency in response to the treatments. Growth inhibition was calculated as 1−(percentage of viable cells out of untreated cells).

[3] = system: MB-231 shC and shF5 cells; test: Proliferation assay, MB-231 lines expressing control shRNA (shC) or FABP5 shRNA (shF5); format: cell-based; settings: MB-231 shC vs shF5, different concentrations
Description: as §9

[4] = system: PPARδ targets PDPK1 and CD47 in TNBC cells MB-157; test: Real-time PCR of PPARδ targets; format: cell-based, human; settings: MB-157, 1 μM, 6 hours
Description: as §8

[5] = system: FABP5 together with PPARδ; test: Transcriptional activation assay in cells overexpressing FABP5, with PPARδ activator GW0742; format: cell-based; settings: together with GW0742, FIG. 8
Description: as §6

PPARγ = test: Transactivation assay, PPRE luciferase reporter in COS-7 cells; format: cell-based; settings: tested against rosiglitazone, FIG. 4
Description: as §6, §7

PPARα = biological target: T3, PPARα (Homo sapiens, UniProt Q07869); test: as above; format: cell-based; settings: compared to WY-14643, FIG. 6
T3 construct: expressed in transfected cells; host or cells: COS-7
Description: as §6, §7

[6] = system: FABP4 together with PPARγ; test: Transcriptional activation assay in cells overexpressing FABP4, with PPARγ activator rosiglitazone; format: cell-based; settings: FIG. 7
Description: as §6

T2 sequence (Q01469 whole entry, species assumed): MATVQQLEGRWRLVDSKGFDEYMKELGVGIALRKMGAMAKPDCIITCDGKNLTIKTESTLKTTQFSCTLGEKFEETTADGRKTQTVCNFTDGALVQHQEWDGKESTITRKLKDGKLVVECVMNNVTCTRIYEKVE
T1 sequence (P15090 whole entry, species assumed): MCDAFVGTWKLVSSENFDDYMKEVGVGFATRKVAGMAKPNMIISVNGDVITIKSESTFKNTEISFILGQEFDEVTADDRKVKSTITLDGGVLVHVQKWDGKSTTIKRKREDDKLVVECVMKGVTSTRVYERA
T3 sequence (Q07869 whole entry, species assumed): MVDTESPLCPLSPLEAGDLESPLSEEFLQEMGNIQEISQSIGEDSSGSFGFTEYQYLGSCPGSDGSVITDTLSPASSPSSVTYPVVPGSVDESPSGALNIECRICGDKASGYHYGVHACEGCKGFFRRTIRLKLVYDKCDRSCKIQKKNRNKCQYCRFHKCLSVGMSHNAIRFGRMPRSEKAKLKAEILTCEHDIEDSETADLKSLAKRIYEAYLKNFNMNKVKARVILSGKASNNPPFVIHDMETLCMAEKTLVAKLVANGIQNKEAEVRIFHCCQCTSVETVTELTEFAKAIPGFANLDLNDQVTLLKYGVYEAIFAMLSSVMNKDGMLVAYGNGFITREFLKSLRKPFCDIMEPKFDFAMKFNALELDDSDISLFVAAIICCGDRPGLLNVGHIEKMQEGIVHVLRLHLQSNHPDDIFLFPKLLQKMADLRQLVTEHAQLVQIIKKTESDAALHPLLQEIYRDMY

| SMILES | uptake of lipid into hepatic cells (Nile Red) (HepG2 cells) | proliferation (MDA-MB-157) | proliferation (MB-549) | Kd (FABP4) [nM] | Kd (FABP5) [nM] | proliferation of neuroblastoma cells in combination with atRA [1] | proliferation of neuroblastoma cells [1] | activation of transcription by PPARδ (PPARδ; 5 μM, COS7 cells, FIG. 36A) | suppression of growth of TNBC cells compared with SBF-I26 (MB-231 cells) | levels of endogenous PPARδ targets PDPK1 and CD47 [2] | growth inhibition of TNBC lines by FABP5 level (TNBC lines and MCF7) | TNBC cell growth, shC versus shF5 [3] | levels of endogenous PPARδ targets PDPK1 and CD47 [4] | inhibition of PPARδ activity in cells overexpressing FABP5 [5] | activation of transcription by PPARδ (PPARδ; compared to GW0742, FIG. 5) | activation of transcription by PPARγ (PPARγ) | activation of PPARα (PPARα) | inhibition of PPARγ activity in cells overexpressing FABP4 [6] |
| --- | --- | --- | --- | --- | --- | --- | --- | --- | --- | --- | --- | --- | --- | --- | --- | --- | --- | --- |
| CC(C)Oc1cc(NC(=O)CC2(CC(=O)O)CCCC2)c(Cl)cc1Cl [Compound B118, 2-(1-(2-((2,4-dichloro-5-isopropoxyphenyl)amino)-2-oxoethyl)cyclopentyl)acetic acid] | markedly inhibited | inhibited proliferation of both TNBC lines | inhibited proliferation of both TNBC lines | 78 | 2 | sensitize cells to all-trans retinoic acid treatments | inhibit growth of neuroblastoma | do not Activate Transcription | Suppress Growth of TNBC Cells More Effectively than the Commercially Available Inhibitor SBF-I26 |  |  |  |  |  |  |  |  |  |
| CC(C)Oc1cc(NC(=O)CC(C)(C)CC(=O)O)c(Cl)cc1Cl [Compound B116, 5-((2,4-dichloro-5-isopropoxyphenyl)amino)-3,3-dimethyl-5-oxopentanoic acid] | markedly inhibited | inhibited proliferation of both TNBC lines | inhibited proliferation of both TNBC lines | 90 | 3 | sensitize cells to all-trans retinoic acid treatments | inhibit growth of neuroblastoma | do not Activate Transcription | Suppress Growth of TNBC Cells More Effectively than the Commercially Available Inhibitor SBF-I26 |  |  |  |  |  |  |  |  |  |
| O=C(O)CSCC(=O)Nc1cc(OCc2ccccc2)c(Cl)cc1Cl [Compound B7] |  |  |  |  |  |  |  |  |  | significantly lower | inhibited growth of only TNBC lines expressing high FABP5 levels | suppressed TNBC cell growth only in the cells highly expressing FABP5 | significantly lower | inhibit activity of the nuclear receptors only in cells that express the binding proteins | did not active transcription | did not activate transcription | activate PPARα | inhibit activity of the nuclear receptors only in cells that express the binding proteins |
